The structures appear in SMILES notation. *1 amine or outer side, *2 acyl side, *3 side chain or, on linkers, in order; H or OH if unused. Where a SMILES comes first, the peptide text is derived from it. [ ]: non-standard residue; d: D form. X3 = CC(=O)N[C@@H]1[C@@H](O)[C@H](O)[C@@H](CO)O[C@H]1NC(=N)NCCC[C@H](N[*:1])C(=O)[*:2]; X6 = C[C@@H]1O[C@@H](NC(=N)NCCC[C@H](N[*:1])C(=O)[*:2])[C@H](O)[C@H](O)[C@H]1O; X5 = N=C(NCCC[C@H](N[*:1])C(=O)[*:2])N[C@@H]1OC[C@@H](O)[C@H](O)[C@H]1O

This data set can be described thus: Cytotoxicity against C57BL/6 mouse Pre-Osteoblast cells assessed as cell death upto 5 uM incubated for 4 days by CCK-8 assay. It counts as toxicity, cell-based. To be noted: 96 h, time 4 day. A general note: Tetrazolium dyes change colour on reduction, which living cells bring about.
On to `CC[C@H](C)[C@H](NC(=O)[C@H](CCC(=O)O)NC(=O)[C@H](CO)NC(=O)[C@@H](NC(=O)[C@H](CO)NC(C)=O)C(C)C)C(=O)N[C@@H](CCC(N)=O)C(=O)N[C@@H](CC(C)C)C(=O)N[C@@H](CCSC)C(=O)N[C@@H](Cc1cnc[nH]1)C(=O)N[C@@H](CC(N)=O)C(=O)N[C@@H](CC(C)C)C(=O)NCC(=O)N[C@@H](CCCCN)C(=O)N[C@@H](Cc1cnc[nH]1)C(=O)N[C@@H](CC(C)C)C(=O)N[C@@H](CC(N)=O)C(=O)N[C@@H](CO)C(=O)N[C@@H](CCSC)C(=O)N[C@@H](CCC(=O)O)C(=O)N[C@@H](CCCNC(=N)N[C@@H]1OC[C@@H](O)[C@H](O)[C@H]1O)C(=O)N[C@H](C(=O)N[C@@H](CCC(=O)O)C(=O)N[C@@H](Cc1c[nH]c2ccccc12)C(=O)N[C@@H](CC(C)C)C(=O)N[C@@H](CCCNC(=N)N[C@@H]1OC[C@@H](O)[C@H](O)[C@H]1O)C(=O)N[C@@H](CCCCN)C(=O)N[C@@H](CCCCN)C(=O)N[C@@H](CC(C)C)C(=O)N[C@@H](CCC(N)=O)C(=O)N[C@@H](CC(=O)O)C(=O)N[C@H](C(=O)N[C@@H](Cc1cnc[nH]1)C(=O)N[C@@H](CC(N)=O)C(=O)N[C@@H](Cc1ccccc1)C(N)=O)C(C)C)C(C)C` (Ac-SVSEIQLMHNLGKHLNSME[X5]VEWL[X5]KKLQDVHNF-NH2), for which the Activity result is listed as “Non-Toxic”.

For the compound `CC[C@H](C)[C@H](NC(=O)[C@H](CCC(=O)O)NC(=O)[C@H](CO)NC(=O)[C@@H](NC(=O)[C@H](CO)NC(C)=O)C(C)C)C(=O)N[C@@H](CCC(N)=O)C(=O)N[C@@H](CC(C)C)C(=O)N[C@@H](CCSC)C(=O)N[C@@H](Cc1cnc[nH]1)C(=O)N[C@@H](CC(N)=O)C(=O)N[C@@H](CC(C)C)C(=O)NCC(=O)N[C@@H](CCCCN)C(=O)N[C@@H](Cc1cnc[nH]1)C(=O)N[C@@H](CC(C)C)C(=O)N[C@@H](CC(N)=O)C(=O)N[C@@H](CO)C(=O)N[C@@H](CCSC)C(=O)N[C@@H](CCC(=O)O)C(=O)N[C@@H](CCCNC(=N)N)C(=O)N[C@H](C(=O)N[C@@H](CCC(=O)O)C(=O)N[C@@H](Cc1c[nH]c2ccccc12)C(=O)N[C@@H](CC(C)C)C(=O)N[C@@H](CCCNC(=N)N[C@@H]1OC[C@@H](O)[C@H](O)[C@H]1O)C(=O)N[C@@H](CCCCN)C(=O)N[C@@H](CCCCN)C(=O)N[C@@H](CC(C)C)C(=O)N[C@@H](CCC(N)=O)C(=O)N[C@@H](CC(=O)O)C(=O)N[C@H](C(=O)N[C@@H](Cc1cnc[nH]1)C(=O)N[C@@H](CC(N)=O)C(=O)N[C@@H](Cc1ccccc1)C(N)=O)C(C)C)C(C)C`, the Activity result is “Non-Toxic”.

Consider `CC[C@H](C)[C@H](NC(=O)[C@H](CCC(=O)O)NC(=O)[C@H](CO)NC(=O)[C@@H](NC(=O)[C@H](CO)NC(C)=O)C(C)C)C(=O)N[C@@H](CCC(N)=O)C(=O)N[C@@H](CC(C)C)C(=O)N[C@@H](CCSC)C(=O)N[C@@H](Cc1cnc[nH]1)C(=O)N[C@@H](CC(N)=O)C(=O)N[C@@H](CC(C)C)C(=O)NCC(=O)N[C@@H](CCCCN)C(=O)N[C@@H](Cc1cnc[nH]1)C(=O)N[C@@H](CC(C)C)C(=O)N[C@@H](CC(N)=O)C(=O)N[C@@H](CO)C(=O)N[C@@H](CCSC)C(=O)N[C@@H](CCC(=O)O)C(=O)N[C@@H](CCCNC(=N)N)C(=O)N[C@H](C(=O)N[C@@H](CCC(=O)O)C(=O)N[C@@H](Cc1c[nH]c2ccccc12)C(=O)N[C@@H](CC(C)C)C(=O)N[C@@H](CCCNC(=N)N[C@@H]1O[C@@H](C)[C@H](O)[C@@H](O)[C@H]1O)C(=O)N[C@@H](CCCCN)C(=O)N[C@@H](CCCCN)C(=O)N[C@@H](CC(C)C)C(=O)N[C@@H](CCC(N)=O)C(=O)N[C@@H](CC(=O)O)C(=O)N[C@H](C(=O)N[C@@H](Cc1cnc[nH]1)C(=O)N[C@@H](CC(N)=O)C(=O)N[C@@H](Cc1ccccc1)C(N)=O)C(C)C)C(C)C`, for which the Activity result is “Non-Toxic”.

As for `CC[C@H](C)[C@H](NC(=O)[C@H](CCC(=O)O)NC(=O)[C@H](CO)NC(=O)[C@@H](NC(=O)[C@H](CO)NC(C)=O)C(C)C)C(=O)N[C@@H](CCC(N)=O)C(=O)N[C@@H](CC(C)C)C(=O)N[C@@H](CCSC)C(=O)N[C@@H](Cc1cnc[nH]1)C(=O)N[C@@H](CC(N)=O)C(=O)N[C@@H](CC(C)C)C(=O)NCC(=O)N[C@@H](CCCCN)C(=O)N[C@@H](Cc1cnc[nH]1)C(=O)N[C@@H](CC(C)C)C(=O)N[C@@H](CC(N)=O)C(=O)N[C@@H](CO)C(=O)N[C@@H](CCSC)C(=O)N[C@@H](CCC(=O)O)C(=O)N[C@@H](CCCNC(=N)N[C@@H]1O[C@H](CO)[C@@H](O)[C@H](O)[C@H]1NC(C)=O)C(=O)N[C@H](C(=O)N[C@@H](CCC(=O)O)C(=O)N[C@@H](Cc1c[nH]c2ccccc12)C(=O)N[C@@H](CC(C)C)C(=O)N[C@@H](CCCNC(=N)N[C@@H]1O[C@H](CO)[C@@H](O)[C@H](O)[C@H]1NC(C)=O)C(=O)N[C@@H](CCCCN)C(=O)N[C@@H](CCCCN)C(=O)N[C@@H](CC(C)C)C(=O)N[C@@H](CCC(N)=O)C(=O)N[C@@H](CC(=O)O)C(=O)N[C@H](C(=O)N[C@@H](Cc1cnc[nH]1)C(=O)N[C@@H](CC(N)=O)C(=O)N[C@@H](Cc1ccccc1)C(N)=O)C(C)C)C(C)C` (Ac-SVSEIQLMHNLGKHLNSME[X3]VEWL[X3]KKLQDVHNF-NH2), the Activity entry was “Non-Toxic”.

For `CC[C@H](C)[C@H](NC(=O)[C@H](CCC(=O)O)NC(=O)[C@H](CO)NC(=O)[C@@H](NC(=O)[C@H](CO)NC(C)=O)C(C)C)C(=O)N[C@@H](CCC(N)=O)C(=O)N[C@@H](CC(C)C)C(=O)N[C@@H](CCSC)C(=O)N[C@@H](Cc1cnc[nH]1)C(=O)N[C@@H](CC(N)=O)C(=O)N[C@@H](CC(C)C)C(=O)NCC(=O)N[C@@H](CCCCN)C(=O)N[C@@H](Cc1cnc[nH]1)C(=O)N[C@@H](CC(C)C)C(=O)N[C@@H](CC(N)=O)C(=O)N[C@@H](CO)C(=O)N[C@@H](CCSC)C(=O)N[C@@H](CCC(=O)O)C(=O)N[C@@H](CCCNC(=N)N[C@@H]1O[C@H](CO)[C@@H](O)[C@H]1O)C(=O)N[C@H](C(=O)N[C@@H](CCC(=O)O)C(=O)N[C@@H](Cc1c[nH]c2ccccc12)C(=O)N[C@@H](CC(C)C)C(=O)N[C@@H](CCCNC(=N)N)C(=O)N[C@@H](CCCCN)C(=O)N[C@@H](CCCCN)C(=O)N[C@@H](CC(C)C)C(=O)N[C@@H](CCC(N)=O)C(=O)N[C@@H](CC(=O)O)C(=O)N[C@H](C(=O)N[C@@H](Cc1cnc[nH]1)C(=O)N[C@@H](CC(N)=O)C(=O)N[C@@H](Cc1ccccc1)C(N)=O)C(C)C)C(C)C`, the Activity entry was “Non-Toxic”.

Take `CC[C@H](C)[C@H](NC(=O)[C@H](CCC(=O)O)NC(=O)[C@H](CO)NC(=O)[C@@H](NC(=O)[C@H](CO)NC(C)=O)C(C)C)C(=O)N[C@@H](CCC(N)=O)C(=O)N[C@@H](CC(C)C)C(=O)N[C@@H](CCSC)C(=O)N[C@@H](Cc1cnc[nH]1)C(=O)N[C@@H](CC(N)=O)C(=O)N[C@@H](CC(C)C)C(=O)NCC(=O)N[C@@H](CCCCN)C(=O)N[C@@H](Cc1cnc[nH]1)C(=O)N[C@@H](CC(C)C)C(=O)N[C@@H](CC(N)=O)C(=O)N[C@@H](CO)C(=O)N[C@@H](CCSC)C(=O)N[C@@H](CCC(=O)O)C(=O)N[C@@H](CCCNC(=N)N)C(=O)N[C@H](C(=O)N[C@@H](CCC(=O)O)C(=O)N[C@@H](Cc1c[nH]c2ccccc12)C(=O)N[C@@H](CC(C)C)C(=O)N[C@@H](CCCNC(=N)N[C@@H]1O[C@H](CO)[C@@H](O[C@@H]2O[C@H](CO)[C@H](O)[C@H](O)[C@H]2O)[C@H](O)[C@H]1O)C(=O)N[C@@H](CCCCN)C(=O)N[C@@H](CCCCN)C(=O)N[C@@H](CC(C)C)C(=O)N[C@@H](CCC(N)=O)C(=O)N[C@@H](CC(=O)O)C(=O)N[C@H](C(=O)N[C@@H](Cc1cnc[nH]1)C(=O)N[C@@H](CC(N)=O)C(=O)N[C@@H](Cc1ccccc1)C(N)=O)C(C)C)C(C)C`: the Activity result is reported as “Non-Toxic”.

For `CC[C@H](C)[C@H](NC(=O)[C@H](CCC(=O)O)NC(=O)[C@H](CO)NC(=O)[C@@H](NC(=O)[C@H](CO)NC(C)=O)C(C)C)C(=O)N[C@@H](CCC(N)=O)C(=O)N[C@@H](CC(C)C)C(=O)N[C@@H](CCSC)C(=O)N[C@@H](Cc1cnc[nH]1)C(=O)N[C@@H](CC(N)=O)C(=O)N[C@@H](CC(C)C)C(=O)NCC(=O)N[C@@H](CCCCN)C(=O)N[C@@H](Cc1cnc[nH]1)C(=O)N[C@@H](CC(C)C)C(=O)N[C@@H](CC(N)=O)C(=O)N[C@@H](CO)C(=O)N[C@@H](CCSC)C(=O)N[C@@H](CCC(=O)O)C(=O)N[C@@H](CCCNC(=N)N[C@@H]1O[C@H](CO)[C@@H](O)[C@H](O)[C@H]1NC(C)=O)C(=O)N[C@H](C(=O)N[C@@H](CCC(=O)O)C(=O)N[C@@H](Cc1c[nH]c2ccccc12)C(=O)N[C@@H](CC(C)C)C(=O)N[C@@H](CCCNC(=N)N)C(=O)N[C@@H](CCCCN)C(=O)N[C@@H](CCCCN)C(=O)N[C@@H](CC(C)C)C(=O)N[C@@H](CCC(N)=O)C(=O)N[C@@H](CC(=O)O)C(=O)N[C@H](C(=O)N[C@@H](Cc1cnc[nH]1)C(=O)N[C@@H](CC(N)=O)C(=O)N[C@@H](Cc1ccccc1)C(N)=O)C(C)C)C(C)C`, the Activity entry is recorded as “Non-Toxic”.

Turning to `CC[C@H](C)[C@H](NC(=O)[C@H](CCC(=O)O)NC(=O)[C@H](CO)NC(=O)[C@@H](NC(=O)[C@H](CO)NC(C)=O)C(C)C)C(=O)N[C@@H](CCC(N)=O)C(=O)N[C@@H](CC(C)C)C(=O)N[C@@H](CCSC)C(=O)N[C@@H](Cc1cnc[nH]1)C(=O)N[C@@H](CC(N)=O)C(=O)N[C@@H](CC(C)C)C(=O)NCC(=O)N[C@@H](CCCCN)C(=O)N[C@@H](Cc1cnc[nH]1)C(=O)N[C@@H](CC(C)C)C(=O)N[C@@H](CC(N)=O)C(=O)N[C@@H](CO)C(=O)N[C@@H](CCSC)C(=O)N[C@@H](CCC(=O)O)C(=O)N[C@@H](CCCNC(=N)N[C@@H]1O[C@@H](C)[C@H](O)[C@@H](O)[C@H]1O)C(=O)N[C@H](C(=O)N[C@@H](CCC(=O)O)C(=O)N[C@@H](Cc1c[nH]c2ccccc12)C(=O)N[C@@H](CC(C)C)C(=O)N[C@@H](CCCNC(=N)N[C@@H]1O[C@@H](C)[C@H](O)[C@@H](O)[C@H]1O)C(=O)N[C@@H](CCCCN)C(=O)N[C@@H](CCCCN)C(=O)N[C@@H](CC(C)C)C(=O)N[C@@H](CCC(N)=O)C(=O)N[C@@H](CC(=O)O)C(=O)N[C@H](C(=O)N[C@@H](Cc1cnc[nH]1)C(=O)N[C@@H](CC(N)=O)C(=O)N[C@@H](Cc1ccccc1)C(N)=O)C(C)C)C(C)C` (Ac-SVSEIQLMHNLGKHLNSME[X6]VEWL[X6]KKLQDVHNF-NH2), the Activity entry is reported as “Non-Toxic”.

The values are drawn from ChEMBL document CHEMBL5537170, “Design, Synthesis, and Anti-Osteoporotic Characterization of Arginine N-Glycosylated Teriparatide Analogs via the Silver-catalyzed Solid-Phase Glycosylation Strategy” (J Med Chem, 2024).
